ChEMBL document CHEMBL5385921, “Kagimminols A and B, Cembrene-Type Diterpenes from an Okeania sp. Marine Cyanobacterium” (J Nat Prod, 2024)
Counter-ions that a name gives are not always drawn.

What was measured:
[1] = tested on: Trypanosoma brucei rhodesiense; test: Antitrypanosomal activity against blood stream form of Trypanosoma brucei rhodesiense IL-1501 assessed as growth inhibition incubated for 69 hrs by alamar blue staining based microplate fluorescence scanner analysis; format: functional, organism-based; conditions: IL-1501, 69 h
[2] = tested on: HeLa; test: Antiproliferative activity against human HeLa cells assessed as inhibition of cell growth incubated for 72 hrs by MTT assay; format: functional, cell-based

SMILES | IC50 [1] [µM] | IC50 [2] [µM]
C/C1=C\C=C(\C(C)C)[C@@H](O)C[C@](C)(O)C(=O)CC/C(C)=C/CC1 | 10 | > 30
COc1cccc2c1C(=O)c1c(O)c3c(c(O)c1C2=O)C[C@@](O)(C(=O)CO)C[C@@H]3O[C@H]1C[C@H](N)[C@H](O)[C@H](C)O1 [DOXORUBICIN HYDROCHLORIDE] |  | 0.5
CC(=O)O[C@H]1C[C@](C)(O)C(=O)/C=C(\O)[C@](C)(O)CCC/C(C)=C/C=C\1C(C)C | 3.4 | > 30
